# Results from US8658661B2, “Oxadiazole inhibitors of leukotriene production” (Boehringer Ingelheim International GmbH, priority 2010, dated 2014).
# Columns and labels:
# [1] = biological target: T1, recombinant human FLAP protein (Homo sapiens, UniProt P20292); test: FLAP binding assay (SPA, displacement of [125I]L-691,831); settings: membranes of sf9 cells expressing recombinant human FLAP; [125I]L-691,831 probe; read-out: FLAP binding IC50
# T1 construct: made in house; host or cells: Sf9 insect cells (100,000×g membrane pellet used)
# T1 sequence (P20292 1-161): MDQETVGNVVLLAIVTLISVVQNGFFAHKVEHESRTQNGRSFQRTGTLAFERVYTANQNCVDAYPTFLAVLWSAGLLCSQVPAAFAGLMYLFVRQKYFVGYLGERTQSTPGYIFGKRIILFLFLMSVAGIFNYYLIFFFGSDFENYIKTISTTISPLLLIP
# Outline: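 Membranes from sf9 cells expressing human FLAP in pH 7.5 Tris buffer (MgCl2, EDTA, PMSF). Non-specific binding defined with 10 μM cold L-691,831.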
# [2] = tested on: synthesis of LTB4 in human whole blood; test: Human whole blood assay (inhibition of LTB4 synthesis, calcimycin stimulated); assay type: cell-based; settings: heparinized human whole blood, calcimycin 20 μM, plasma LTB4
# Outline: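 Heparinized human whole blood was preincubated with compound for 15 min at 37° C, then stimulated with calcimycin (20 μM final, in PBS pH 7.4) for a further 30 min at 37° C. Plasma LTB4 was quantified by antibody-based homogeneous time-resolved fluorescence.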
IC50 [1],IC50 [2],SMILES
0.24 µM,> 5 µM,"CC(C)C(C)(c1ccc(-c2cnc(N)nc2)cc1)c1noc(CC(C)(C)C(=O)O)n1 (stereo not shown) [Example 93, 3-(3-{2-[4-(2-aminopyrimidin-5-yl)phenyl]-3-methylbutan-2-yl}-1,2,4-oxadiazol-5-yl)-2,2-dimethylpropanoic acid]"
0.35 µM,> 5 µM,"CC(C)C(C)(c1ccc(-c2cnc(N)nc2)cc1)c1noc(CCC(=O)O)n1 (stereo not shown) [Example 94, 3-(3-{2-[4-(2-aminopyrimidin-5-yl)phenyl]-3-methylbutan-2-yl}-1,2,4-oxadiazol-5-yl)propanoic acid]"
0.13 µM,> 5 µM,"CC(C)C(C)(c1ccc(-c2cnc(N)nc2)cc1)c1noc(C2(C(=O)O)CC2)n1 (stereo not shown) [Example 95, 1-(3-{2-[4-(2-aminopyrimidin-5-yl)phenyl]-3-methylbutan-2-yl}-1,2,4-oxadiazol-5-yl)cyclopropanecarboxylic acid]"
0.0075 µM,0.15 µM,"CC(C)C(C)(c1ccc(-c2cnc(N)nc2)cc1)c1noc(N2CCN(C)CC2)n1 (stereo not shown) [Example 96, 5-(4-{3-methyl-2-[5-(4-methylpiperazin-1-yl)-1,2,4-oxadiazol-3-yl]butan-2-yl}phenyl)pyrimidin-2-amine]"
0.0088 µM,0.17 µM,"CN(C)C(=O)Cn1cc(-c2nc(C(C)(c3ccc(-c4cnc(N)nc4)cc3)C3CCC3)no2)cn1 (stereo not shown) [Example 97, 2-[4-(3-{1-[4-(2-aminopyrimidin-5-yl)phenyl]-1-cyclobutylethyl}-1,2,4-oxadiazol-5-yl)-1H-pyrazol-1-yl]-N,N-dimethylacetamide]"
0.012 µM,0.57 µM,"CNC(=O)Cn1cc(-c2nc(C(C)(c3ccc(-c4cnc(N)nc4)cc3)C3CCC3)no2)cn1 (stereo not shown) [Example 98, 2-[4-(3-{1-[4-(2-aminopyrimidin-5-yl)phenyl]-1-cyclobutylethyl}-1,2,4-oxadiazol-5-yl)-1H-pyrazol-1-yl]-N-methylacetamide]"
0.0039 µM,0.2 µM,"CC(c1ccc(-c2cnc(N)nc2)cc1)(c1noc(-c2cnn(C3COC3)c2)n1)C1CCC1 (stereo not shown) [Example 99, 5-[4-(1-cyclobutyl-1-{5-[1-(oxetan-3-yl)-1H-pyrazol-4-yl]-1,2,4-oxadiazol-3-yl}ethyl)phenyl]pyrimidin-2-amine]"
0.0023 µM,0.11 µM,"COCCn1cc(-c2nc([C@@](C)(c3ccc(-c4cnc(N)nc4)cc3)C3CCC3)no2)cn1 [Example 100, 5-{4-[(1R)-1-cyclobutyl-1-{5-[1-(2-methoxyethyl)-1H-pyrazol-4-yl]-1,2,4-oxadiazol-3-yl}ethyl]phenyl}pyrimidin-2-amine]"
0.28 µM,> 5 µM,"COCCn1cc(-c2nc([C@](C)(c3ccc(-c4cnc(N)nc4)cc3)C3CCC3)no2)cn1 [Example 101, 5-{4-[(1S)-1-cyclobutyl-1-{5-[1-(2-methoxyethyl)-1H-pyrazol-4-yl]-1,2,4-oxadiazol-3-yl}ethyl]phenyl}pyrimidin-2-amine]"
0.0016 µM,0.051 µM,"C[C@@](c1ccc(-c2cnc(N)nc2)cc1)(c1noc(-c2cnn(C3COC3)c2)n1)C1CCC1 [Example 102, 5-{4-[(1R)-1-cyclobutyl-1-{5-[1-(oxetan-3-yl)-1H-pyrazol-4-yl]-1,2,4-oxadiazol-3-yl}ethyl]phenyl}pyrimidin-2-amine]"
0.13 µM,2.7 µM,"C[C@](c1ccc(-c2cnc(N)nc2)cc1)(c1noc(-c2cnn(C3COC3)c2)n1)C1CCC1 [Example 103, 5-{4-[(1S)-1-cyclobutyl-1-{5-[1-(oxetan-3-yl)-1H-pyrazol-4-yl]-1,2,4-oxadiazol-3-yl}ethyl]phenyl}pyrimidin-2-amine]"
0.0061 µM,0.13 µM,"CN(C)C(=O)Cn1cc(-c2nc([C@@](C)(c3ccc(-c4cnc(N)nc4)cc3)C3CCC3)no2)cn1 [Example 104, 2-[4-(3-{(1R)-1-[4-(2-aminopyrimidin-5-yl)phenyl]-1-cyclobutylethyl}-1,2,4-oxadiazol-5-yl)-1H-pyrazol-1-yl]-N,N-dimethylacetamide]"
0.49 µM,> 5 µM,"CN(C)C(=O)Cn1cc(-c2nc([C@](C)(c3ccc(-c4cnc(N)nc4)cc3)C3CCC3)no2)cn1 [Example 105, 2-[4-(3-{(1S)-1-[4-(2-aminopyrimidin-5-yl)phenyl]-1-cyclobutylethyl}-1,2,4-oxadiazol-5-yl)-1H-pyrazol-1-yl]-N,N-dimethylacetamide]"
0.0048 µM,0.076 µM,"CC(C)C(C)(c1ccc(-c2cnc(N)nc2)cc1)c1noc(-c2cnn(CC(=O)N(C)C)c2)n1 (stereo not shown) [Example 106, 2-[4-(3-{2-[4-(2-aminopyrimidin-5-yl)phenyl]-3-methylbutan-2-yl}-1,2,4-oxadiazol-5-yl)-1H-pyrazol-1-yl]-N,N-dimethylacetamide]"
0.00086 µM,0.017 µM,"CC(C)[C@](C)(c1ccc(-c2cnc(N)nc2)cc1)c1noc(-c2cnn(CC(C)(C)O)c2)n1 [Example 107, 1-[4-(3-{(2R)-2-[4-(2-aminopyrimidin-5-yl)phenyl]-3-methylbutan-2-yl}-1,2,4-oxadiazol-5-yl)-1H-pyrazol-1-yl]-2-methylpropan-2-ol]"
0.0087 µM,0.32 µM,"CC(C)[C@@](C)(c1ccc(-c2cnc(N)nc2)cc1)c1noc(-c2cnn(CC(C)(C)O)c2)n1 [Example 108, 1-[4-(3-{(2S)-2-[4-(2-aminopyrimidin-5-yl)phenyl]-3-methylbutan-2-yl}-1,2,4-oxadiazol-5-yl)-1H-pyrazol-1-yl]-2-methylpropan-2-ol]"
0.046 µM,1.5 µM,"CC(C)C(C)(c1ccc(-c2cnc(N)nc2)cc1)c1noc(C2CCN(C(=O)OC(C)(C)C)CC2)n1 (stereo not shown) [Example 109, 4-(3-{1-[4-(2-Amino-pyrimidin-5-yl)-phenyl]-1,2-dimethyl-propyl}-1,2,4-oxadiazol-5-yl)-piperidine-1-carboxylic acid tert-butyl ester]"
0.19 µM,2.8 µM,"CC(C)C(C)(c1ccc(-c2cnc(N)nc2)cc1)c1noc(C2CCNCC2)n1 (stereo not shown) [Example 110, 5-(4-{3-methyl-2-[5-(piperidin-4-yl)-1,2,4-oxadiazol-3-yl]butan-2-yl}phenyl)pyrimidin-2-amine]"
0.015 µM,2.9 µM,"CC(C)C(C)(c1ccc(-c2cnc(N)nc2)cc1)c1noc(C2CCCN(C(=O)OC(C)(C)C)C2)n1 (stereo not shown) [Example 111, tert-butyl 3-(3-{2-[4-(2-aminopyrimidin-5-yl)phenyl]-3-methylbutan-2-yl}-1,2,4-oxadiazol-5-yl)piperidine-1-carboxylate]"
0.19 µM,> 5 µM,"CC(C)C(C)(c1ccc(-c2cnc(N)nc2)cc1)c1noc(C2CCCCN2C(=O)OC(C)(C)C)n1 (stereo not shown) [Example 112, tert-butyl 2-(3-{2-[4-(2-aminopyrimidin-5-yl)phenyl]-3-methylbutan-2-yl}-1,2,4-oxadiazol-5-yl)piperidine-1-carboxylate]"
0.066 µM,3.1 µM,"CC(C)C(C)(c1ccc(-c2cnc(N)nc2)cc1)c1noc(C2CCCNC2)n1 (stereo not shown) [Example 113, 5-(4-{3-methyl-2-[5-(piperidin-3-yl)-1,2,4-oxadiazol-3-yl]butan-2-yl}phenyl)pyrimidin-2-amine]"
0.021 µM,1.1 µM,"CC(C)C(C)(c1ccc(-c2cnc(N)nc2)cc1)c1noc(C2CCCCN2)n1 (stereo not shown) [Example 114, 5-(4-{3-methyl-2-[5-(piperidin-2-yl)-1,2,4-oxadiazol-3-yl]butan-2-yl}phenyl)pyrimidin-2-amine]"
0.031 µM,1.2 µM,"CC(C)C(C)(c1ccc(-c2cnc(N)nc2)cc1)c1noc(C2(C)CCCC2)n1 (stereo not shown) [Example 117, 5-(4-{3-methyl-2-[5-(1-methylcyclopentyl)-1,2,4-oxadiazol-3-yl]butan-2-yl}phenyl)pyrimidin-2-amine]"
0.0099 µM,0.82 µM,"CC(C)C(C)(c1ccc(-c2cnc(N)nc2)cc1)c1noc(C2(C)CC2)n1 (stereo not shown) [Example 118, 5-(4-{3-methyl-2-[5-(1-methylcyclopropyl)-1,2,4-oxadiazol-3-yl]butan-2-yl}phenyl)pyrimidin-2-amine]"
0.0092 µM,0.9 µM,"CC(C)C(C)(c1ccc(-c2cnc(N)nc2)cc1)c1noc(C2CCCCC2)n1 (stereo not shown) [Example 119, 5-{4-[2-(5-cyclohexyl-1,2,4-oxadiazol-3-yl)-3-methylbutan-2-yl]phenyl}pyrimidin-2-amine]"
0.04 µM,2.1 µM,"CC(C)C(C)(c1ccc(-c2cnc(N)nc2)cc1)c1noc(C2(C)CCCCC2)n1 (stereo not shown) [Example 120, 5-(4-{3-methyl-2-[5-(1-methylcyclohexyl)-1,2,4-oxadiazol-3-yl]butan-2-yl}phenyl)pyrimidin-2-amine]"
0.0026 µM,0.091 µM,"Cn1cc(-c2nc([C@@](C)(c3ccc(-c4cnc(N)nc4)cc3)C3CCC3)no2)cn1 [Example 121, 5-(4-{(1R)-1-cyclobutyl-1-[5-(1-methyl-1H-pyrazol-4-yl)-1,2,4-oxadiazol-3-yl]ethyl}phenyl)pyrimidin-2-amine]"
0.14 µM,3.2 µM,"Cn1cc(-c2nc([C@](C)(c3ccc(-c4cnc(N)nc4)cc3)C3CCC3)no2)cn1 [Example 122, 5-(4-{(1S)-1-cyclobutyl-1-[5-(1-methyl-1H-pyrazol-4-yl)-1,2,4-oxadiazol-3-yl]ethyl}phenyl)pyrimidin-2-amine]"
0.0017 µM,0.042 µM,"COCCNc1cnc(-c2nc([C@@](C)(c3ccc(-c4cnc(N)nc4)cc3)C(C)C)no2)cn1 [Example 123, 5-{4-[(2R)-2-(5-{5-[(2-methoxyethyl)amino]pyrazin-2-yl}-1,2,4-oxadiazol-3-yl)-3-methylbutan-2-yl]phenyl}pyrimidin-2-amine]"
